According to EP1488698A1, “Compositions for descreasing intracellular inositol trisphosphate concentration and uses thereof” (priority 1995, dated 1997):
Entries after “also recorded” stand apart in the source; their conditions may differ. Where two headings read alike, the source gives them in different places.

Assays:
male F344 rats = assay: Behavioral analysis after ICV infusion (quisqualate excitotoxicity model); format: in vivo
Procedure: (§1) The animals used in this experiment were male F344 rats (Charles River Breeding Laboratories). The animals were housed individually, exposed to a 12-hour light-dark cycle, and allowed free access to food and water. The animals weighed approximately 250 g at the beginning of each experiment and were weighed daily. In addition, the animals were habituated to handling before each experiment.
(§2) Before administering various compounds, the animals were anesthetized with sodium pentobarbital (50 mg/kg, i.p.) and positioned in a sterotaxic instrument. A 26 gauge cannula was inserted into the cerebral ventricle at the following co-ordinates: 1.0 mm posterior to bregma, 1.5 mm lateral to the midline, and 4.0 mm below the dorsal surface of the neocortex. Cannulas were capped and fixed in place with dental cement. One week after cannulation, 10 µl of each of the treatment drugs was infused, ICV (i.e. into the ventricals of the brain), via a micropump at a rate of 10 µl/min. For this procedure, the animals were lightly restrained and unanesthetized. Following administration of the compound, the infusion cannula remained in position for one minute, after which the permanent in situ cannula was capped.
(§3) The compounds administered were obtained from a commercial supplier (Sigma Chemical Co., St. Louis, MO) and dissolved in saline prior to injection. These compounds included quisqualate (injected at doses ranging from 100 nmole/10 µl to 1 µmole/10 µl), lysocerebroside, and lysophingomyelin (which were injected at doses of 25 nmoles/10 µl to 150 nmoles/10 µl).
(§4) Pilot studies identified several specific behavioral measures that could be used to indicate excessive activation of the metabotropic receptor (see Table 3). […] The experiments that follow were based on an analysis of these behaviors over a two hour period after administration of the compounds of the invention. Behavioral observation was carried out by two trained observers, who worked independently of one another and who were blind to the experimental groups. […] Frequency and duration means were computed by subtracting pre-infusion means from post-infusion means.
(§5) The experiment began one week after ICV cannulation. […] Following the baseline observation period, animals received the first of two ICV infusions (all infusions were of a 10 µl volume that was administered over a 1 minute period). For the first five groups listed above, this consisted of saline (10 µl/minute), for the following 3 groups the infusions were psychosine at 125 nmoles, lysosphingomyelin at 125 nmoles, or lysosphingomyelin at 150 nmoles, respectively. Thirty minutes later, all animals received the second infusion which, for the first five groups listed above, consisted of saline, quisqualate at 225 nmoles, psychosine at 125 nmoles, lysosphingomyelin at 125 nmoles, and lysosphingomyelin at 150 nmoles respectively. […] Following the second infusion animals were returned to their cages, and observed continuously over the subsequent 2 hours.

[1] = as above; format: in vivo, rats; settings: rat, in vivo, icv or intrathecal, rats
Procedure: as §1, §2, §3, §4, §5

[2] = system: primary chick cortical neurons; assay: Phosphoinositide hydrolysis assay (InsP3 production) in cultured primary cortical neurons; format: cell-based; settings: Gallus gallus, Cortical neurone, 20 min, read-out: Ins-P-n
Procedure: The neurons were seeded in 24-well plastic tissue culture plates that had been coated with L-polylysine.
Receptor-stimulated and basal unstimulated hydrolysis of phosphoinositides was measured by the following procedure. […] The cells were then washed twice with 1 ml Dulbecco's phosphate-buffered saline (PBS) and 0.5 ml of PBS containing 4.5 g/L glucose was added. Sphingosine, psychosine, lysosulphatide, or lysosphingomyelin, prepared as the hydrochloride salt dissolved in water, were then added to produce the desired extracellular concentration in specific wells, […] The cells were then washed twice with 1 ml PBS, and pre-incubated for 15 minutes at 37°C with 0.5 ml PBS containing 10 mM LiCl and the compound to be tested was added. […] The tubes were vortexed thoroughly, then centrifuged at 500 x g for 5 minutes to separate the aqueous and chloroform phases. For each sample, a 1.5-ml aliquot of the upper (aqueous) phase was applied to a small column containing BioRad AG1X8 resin (formate form). Free [^3H]inositol and [^3H]glycerophosphoinositol were washed through the column with 5 ml of a solution containing 5 mM sodium borate and 60 mM sodium formate. The total phosphorylated [^3H] inositol fraction was eluted from the column for radiometric scintillation spectrometry analysis with 3 ml 1.0 M ammonium formate/0.1 M formic acid.
In addition, a 0.5 ml aliquot of the lower (chloroform) phase of each sample was analyzed radiometrically by scintillation spectrometry in order to determine the quantity of lipid-bound [^3H]myo-inositol. Estimation of phosphoinositide hydrolysis by phospholipase C is based upon the quantity of [^3H]inositol phosphates produced, and is expressed as the percentage of the latter relative to total free and componential [^3H]inositol (dpm ammonium formate + dpm chloroform fractions).

hippocampal neurons [3] = assay: Histological analysis of brain (cresyl violet) seven days after ICV infusion; format: in vivo, rats
Procedure: as §1, §2, §3
Seven days after the compounds were administered, animals were sacrificed by transcardial perfusion with neutralized, buffered 10% formalin-saline. Their brains were removed, post-fixed overnight in 10% formalin-saline, and sectioned along the coronal plane (into 50 µm thick sections) on a freezing microtome. The sections were stained with cresyl violet to determine the extent of cellular destruction. […]
Given that high concentrations of metabotropic receptors are located in the hippocampus, and that the hippocampus is particularly vulnerable to the effects of a variety of insults including ischemia and hypoxia, this region was examined for evidence of neuronal degeneration due to glutamate excitoxicity.

hippocampal neurons [4] = assay: as above; format: in vivo; settings: Quisqualate 500 µmoles ICV, rats

N[C@@H](Cn1oc(=O)[nH]c1=O)C(=O)O [Quisqualate, quisqualate]
effective dose (to produce behavioral and histological changes) (male F344 rats; ICV, rats, pilot testing): 225 nmoles | BEHAVIOR (male F344 rats; Quisqualate 100 nmoles ICV, rats, reflex score 0 normal, 3 severely abnormal): -teeth chatter; also recorded: -mild scratching; also recorded: -hind leg weakness 60 minutes; also recorded: -normal placement and clasp reflex (0) | BEHAVIOR (male F344 rats; Quisqualate 150 nmoles ICV, rats, reflex score 0 normal, 3 severely abnormal): -teeth chatter; also recorded: -localized twitches; also recorded: -mild hyperactivity walking in circles; also recorded: -hind leg weakness for 60 minutes; also recorded: -normal placement and clasp reflex (0) | BEHAVIOR (male F344 rats; Quisqualate 150 nmoles ICV, rats, reflex score 0 normal, 3 severely abnormal, listed as quisqualate): an increase in activity and teeth chattering | BEHAVIOR (male F344 rats; Quisqualate 200 nmoles ICV, rats, reflex score 0 normal, 3 severely abnormal): -teeth chatter; also recorded: -occasional mild convulsions; also recorded: -hyperactivity - circle walking; also recorded: -episodic akinesia/tonic immobility; also recorded: -hind leg weakness; also recorded: -normal limb clasp and placement reflex (0) | death, cases (male F344 rats; Quisqualate 225 nmoles ICV, rats): -death in 60% of cases | BEHAVIOR (male F344 rats; Quisqualate 225 nmoles ICV, rats, reflex score 0 normal, 3 severely abnormal): moderate convulsions | BEHAVIOR (male F344 rats; Quisqualate 250 nmoles ICV, rats, reflex score 0 normal, 3 severely abnormal): -localized spasms jerking/twitching; also recorded: -full body convulsions-severe/repeated; also recorded: -foaming at mouth; also recorded: -respiratory distress; also recorded: -abnormal placement and clasp reflex (3); also recorded: -vocalization; also recorded: -teeth chattering; also recorded: -scratching | BEHAVIOR (male F344 rats; Quisqualate 250 nmoles ICV, rats, reflex score 0 normal, 3 severely abnormal, listed as quisqualate): severe convulsions and death | BEHAVIOR (male F344 rats; Quisqualate 1 µmoles ICV, rats): -severe repeated full body convulsions; also recorded: -severe scratching; also recorded: -severe teeth chattering; also recorded: -foaming at mouth | time to death (male F344 rats; Quisqualate 1 µmoles ICV, rats): 5 to 15 min | BEHAVIOR (male F344 rats; Quisqualate 500 µmoles ICV, rats): vocalization | duration of teeth chattering, akinesia and mobilization (male F344 rats; quisqualate alone 225 nmoles vs lysosphingolipids alone and vs quisqualate 225 nmoles + lysophingomyelin 150 nmoles, Fig. 9): significantly (p< .01) more time engaged in these behaviors | number of convulsions/spasms (male F344 rats; quisqualate alone at 225 nmoles ICV compared to all other groups, 2 hours observation, Fig. 8): significantly (p.<01) more convulsions/spasms | mortality ([1]; 225 nmol, Quisqualate 225 nmoles ICV, read-out: death, cases): 60% | mortality ([1]; 250 nmol, Quisqualate 250 nmoles ICV, read-out: death, cases): 75% | mortality ([1]; Quisqualate 1 µmoles ICV, read-out: dead, cases): 100% | fold induction at 100 µM [2]: 3 ± 0.05 | HISTOLOGICAL CHANGES (hippocampal neurons [3]; Quisqualate 100 nmoles ICV, rats): none observed | HISTOLOGICAL CHANGES (hippocampal neurons [3]; Quisqualate 150 nmoles ICV, rats): none observed | HISTOLOGICAL CHANGES (hippocampal neurons [3]; Quisqualate 225 nmoles ICV, rats, seven days after): loss of CA1 pyramidal neurons in the hippocampus | HISTOLOGICAL CHANGES (hippocampal neurons [3]; Quisqualate 225 nmoles ICV, rats, seven days after, listed as quisqualate): severe loss of neurons in the hippocampus; also recorded: a considerable loss of CA1 pyramidal neurons in the hippocampus | HISTOLOGICAL CHANGES (hippocampal neurons [3]; Quisqualate 250 nmoles ICV, 'as above' = loss of neurons in the piriform and entorhinal cortex, CA1 and dentate gyrus regions of the hippocampus, listed as quisqualate): severe loss of neurons in the hippocampus | HISTOLOGICAL CHANGES (hippocampal neurons [4]): loss of neurons in the piriform and entorhinal cortex. CA1 and dentate gyrus regions of the hippocampus
